On the set-up of data set [1]: species or system rats. The following applies: rat, in vivo. Here is the method: The effect of S-NOCCs (N-sulphated N,O-carboxymethyl chitosans) as primary carriers in vivo was tested using rats. Male Wistar rats (SPF status, approximately 250 g) were obtained from Charles River (NL). The animals were fasted for 16 hours before administration with free access to water. The animals were anesthetized with Hypnorm (fentanyl citrate) and Dormicum (midazolam). The body temperature of the rats was kept at 36-37° C. and was monitored throughout the experiment.
Reviparin LMWH (Reviparin, Knoll, 108 Anti-XaU/mg) solution was prepared in physiological saline at 625 anti Xa U/ml.
S-NOCC was tested at two viscosities 40 and 60 cps (S-NOCC40 and S-NOCC60), representing a lower and higher molecular weight chitinous polymer respectively. The S-NOCCs were dissolved at 3% (w/v) in the reviparin solution to form a viscous gel.
In order to administer the LMWH formulations, a thin Teflon tube (˜1 mm i.d.) was used for the control (no polymer). In order to administer the S-NOCC formulations, a polypropylene tube with i.d. ˜3 mm was used to facilitate the viscous gels for their administration. Both tubes were connected to a syringe.
The abdomen of the animals was opened by an incision and the stomach was moved towards the incision point. A small incision at the stomach was made to allow each tube to be guided via the pylorus to the beginning of the duodenum (first 2-3 cm.). Formulation were administered slowly over 5 min and at +/− 2 ml normalized for the body weight of each animal to assure administration of 5000 Anti-Xa U/kg.
Blood samples, ˜225 μl, were collected from the tail vein capillaries (after incision) in Eppendorf vials containing 25 μl sodium citrate 3.8%. The samples were centrifuged at 13000 rpm for 20 min.
Analysis of samples was performed using the Chromostrate heparin Anti-Xa assay (Organon Teknika, NL). […] The release of pNA was measured by an end-point method at 405 nm in an EL808 ultra microplate reader (Biotek Instruments Inc.). […]

For a further data set, the system named is Caco-2 cells. Description: TEER of Caco-2 cells treated with sulphated chitinous polymers. The class given is cell-based. The protocol: The Caco-2 intestinal epithelial cells used in this example form apically tight junctions that seal the paracellular pathways. Disruption of the tight junctions' barrier leads to increased paracellular permeability of hydrophilic drugs that are poorly absorbed across the intestine. The integrity of the tight junctions can be determined by measuring decreases in the transepithelial electrical resistance (TEER) when the tight junctions are opened.
Caco-2 cell cultures were seeded initially from cryovials (stored in liquid nitrogen) to flasks and treated with trypsin. After trypsin treatment, cells were seeded on the Costar Transwell filters (24-well plates, Costar Europe, Badhoevedorp, The Netherlands) at a seeding density of 10^4 cells/cm^2. Dulbecco's Modified Eagle's Medium (DMEM, Sigma, Bornem; Belgium; pH=7.4), supplemented with 1% nonessential amino acids, 10%, fetal calf serum (Hyclone, Greiner, The Netherlands), benzyl-penicillin G (160 U/ml) and streptomycin sulfate (100 μg/ml) (Sigma) was used as culture medium, and was added to both the donor and the acceptor compartment. […]
S-OCC(N-sulphated O-carboxymethyl chitosan), S-NOCC(N-sulphated N,O-carboxymethyl chitosan), and S-SAN (N-sulphated chitosan) were applied on the Caco-2 cell cultures and TEER was measured for 4 hours. […] The TEER was also recorded at 24 hrs after application to investigate the viability of the monolayers.

With Reviparin [reference compound], the “intestinal absorption of LMWH” value in data set [1] is “limited”.

As to Sulphated Chitosan [S-SAN], the “disruption of the tight junctions between Caco-2 epithelial cells” value in the data set with Caco-2 cells is recorded as “able to effectively disrupt the tight junctions”.

“N-sulphated N,O-carboxymethyl chitosan [S-NOCC40]”: in data set [1], the “absorption of the LMWH (plasma anti-Xa level, relative to antithrombotic level)” value was no less than 0.2 Anti-Xa U/ml and the “time over which absorption of LMWH was sustained” value turned out to be 6 h.

The record behind these values is US7265097B2, “Methods of drug delivery using sulphated chitinous polymers” (Chitogenics, Inc., priority 2002, dated 2007).
